This note sets out measurements from patent US8129532B2, “Amino(oligo)thiophene dyes, preparation thereof, and optical methods of use” (The University of Connecticut, priority 2007, dated 2012).

Data set [1] can be described thus: One-photon absorption and emission spectra in multilamellar lipid vesicles, water and ethanol. The following applies: for 1PF Abs. Max / 1PF Em. Max: one photon, soybean multi-lamellar lipid vesicles. It is filed as physicochemical. From the text: […] The column indicating relative signal change for one-photon fluorescence also lists the excitation light source used and the lower bounds of the long-pass emission detected.
Absorption and emission spectra were obtained for a series of dyes with different acceptors: pyridinium (PY-1261), quinolinium (PY-212), and acridinium (PY-2240).

A short description of data set [2]: One-photon fluorescence relative signal change per 100 mV. As to conditions: excitation / long-pass emission (nm) given. From the text: The left-most data columns of Table 1 are the absorption and emission maxima for one photon fluorescence in soybean multi-lamellar lipid vesicles used to mimic the membrane environment. The column indicating relative signal change for one-photon fluorescence also lists the excitation light source used and the lower bounds of the long-pass emission detected.

The test system of data set [3] is NIE-115 mouse neuroblastoma. The data set is described as follows: Time-dependence (kinetics) of SHG and 2PF signal change after voltage-clamp step. It is filed as cell-based. The source says:
For full details of our non-linear imaging microscope, we refer the reader to previously published descriptions. A. C. Millard, P. J. Campagnola, W. Mohler, A. Lewis, and L. M. Loew, “Second Harmonic Imaging Microscopy,” Meth. Enzymol. 361, 47-69 (2003); Millard, A. C., L. Jin, and L. M. Loew, “Second Harmonic Generation Imaging Microscopy with a High Power Ultrafast Fiber Laser,”Commercial and Biomedical Applications of Ultrafast Lasers. 5714-5716, 92-98 (2005); A. C. Millard, L. Jin, M.-D. Wei, J. P. Wuskell, A. Lewis, and L. M. Loew, “Sensitivity of Second Harmonic Generation from Styryl Dyes to Transmembrane Potential,” Biophys. J. 86, 1169-1176 (2004). Our current microscope combines a Fluoview (Olympus) scan-head and an Axiovert (Zeiss) inverted microscope constructed for multiple imaging methodologies including wide-field, one-photon excitation fluorescence imaging, as well as SHG and 2PF imaging. Our laser sources include a Mira (Coherent) Ti:sapphire laser and a Femtopower (Fianium) fiber laser operating at 1064 nm. Millard, A. C., L. Jin, and L. M. Loew, “Second Harmonic Generation Imaging Microscopy with a High Power Ultrafast Fiber Laser,”Commercial and Biomedical Applications of Ultrafast Lasers. 5714-5716, 92-98 (2005). For excitation, we routinely use an IR-Achroplan (Zeiss) 40×, 0.8 NA water-immersion objective though for shorter wavelengths we also use an A-Plan (Zeiss) 40×, 0.65 NA air objective. Fluorescence is imaged (for linear imaging) or collected (for non-linear imaging) back through the excitation objective, while SHG is collected in the forward, transmitted light direction by a condenser, either 0.8 NA or 0.55 NA (Zeiss). For optimal collection, the numerical aperture of the condenser should be at least 1/√2 of the numerical aperture of the excitation objective (L. Moreaux, O. Sandre, S. Charpak, M. Blanchard-Desce, and J. Mertz, “Coherent Scattering in Multi-Harmonic Light Microscopy,” Biophys. J. 80, 1568-1574 (2001); L. Moreaux, O. Sandre, and J. Mertz. “Membrane Imaging by Second Harmonic Generation Microscopy,” J. Opt. Soc. Am. B. 17, 1685-1694 (2000)), though in practice a condenser of slightly lower numerical aperture will often suffice. Since the wavelength of second harmonic light is precisely half that of the excitation light, the choice of filter for SHG imaging is greatly simplified and the primary concern is the blocking of the excitation light that is also transmitted through the sample as well as fluorescence that is emitted forwards.
NIE-115 mouse neuroblastoma were cultured in DMEM with 10% fetal bovine serum and 1% antibiotic-antimycotic (Invitrogen, Carlsbad, Calif.) in a 60 mm plastic dish (353002, Becton Dickinson, Franklin Lakes, N.J.). The culture was maintained at 37° C. with 5% CO2 for a period of 48 hours prior to experimentation.
For experimentation the growth medium was replaced with 3 mL of Earle's Balanced Salt Solution (EBSS, Sigma, St. Louis, Mo.) with 20 mM HEPES (Merck Biosciences AG, Laufelfingen, Switzerland). The internal buffer, injected into the patch pipette, was a potassium aspartate (140 mM, Sigma, St. Louis, Mo.), sodium chloride (5 mM, Sigma, St. Louis, Mo.) and HEPES (10 mM) solution at a pH of 7.35. The pH was adjusted with potassium hydroxide and hydrochloric acid.
For characterizing the voltage-sensitivity of SHG and 2PF, we used a slow (˜0.1 Hz) switching protocol as previously described (A. C. Millard, P. J. Campagnola, W. Mohler, A. Lewis, and L. M. Loew, “Second Harmonic Imaging Microscopy,” Meth. Enzymol. 361, 47-69 (2003); Millard, A. C., L. Jin, and L. M. Loew, “Second Harmonic Generation Imaging Microscopy with a High Power Ultrafast Fiber Laser,” Commercial and Biomedical Applications of Ultrafast Lasers. 5714-5716, 92-98 (2005); A. C. Millard, L. Jin, M.-D. Wei, J. P. Wuskell, A. Lewis, and L. M. Loew, “Sensitivity of Second Harmonic Generation from Styryl Dyes to Transmembrane Potential,” Biophys. J. 86, 1169-1176 (2004)) with a 50 mV step. […]

Data set [4] relates to layer V pyramidal neurons. The data set is described as follows: Voltage-sensitive dye imaging of action potentials in intracellularly stained pyramidal neurons in brain slices. As to conditions: for dF/F at 658 nm: backpropagating AP, basal dendrites 80-150 μm from soma, %; for dF/F at 658 nm / S/N ratio at 658 nm: laser spot 658 nm. In kind it is cell-based, Sprague Dawley rats. The source says: Sprague Dawley rats (P21-42) were anesthetized with isoflurane, decapitated, and the brains were removed with the head immersed in ice-cold, artificial cerebrospinal fluid (ACSF), according to an animal protocol approved by the Center for Laboratory Animal Care, University of Connecticut. Brain slices (300 μm) were cut from frontal lobes in the coronal plane. ACSF contained (in mM) 125 NaCl, 26 NaHCO3, 10 glucose, 2.3 KCl, 1.26 KH2PO4, 2 CaCl2 and 1 MgSO4, pH 7.4. Whole-cell recordings were made from visually identified layer V pyramidal neurons on the medial part of the slice. Intracellular solution contained (in mM) 135 K-gluconate, 2 MgCl2, 3 Na2-ATP, 10 Na2-phosphocreatine, 0.3 Na2-GTP and 10 Hepes (pH 7.3, adjusted with KOH). Electrical signals were amplified with Multiclamp 700A and digitized with two input boards: (1) Digidata Series 1322A (Axon Instruments) at 5 kHz, and (2) Neuroplex (RedShirtImaging) at 2.7 kHz sampling rate. Only cells with a membrane potential more hyperpolarized than −50 mV, and action potential amplitudes exceeding 80 mV (measured from the base line) were included in this study. All experiments were performed on layer 5 cortical pyramidal cells at 34° C.
Blue dyes were stored in ethanol stock solution at −20° C. On the day of the recording blue dyes were dissolved in standard K-gluconate based intracellular solution. A loading pipette was filled with two varieties of the same intracellular solution; one with and one without dye. Dye-free solution was occupying the very tip of the pipette, while the back of the pipette lumen was microloaded with dye-rich solution. The purpose of dye-free solution in the tip of the patch pipette was to prevent dye-leak during the maneuver through brain slice tissue. VSD styryl dyes are lipophilic and bind indiscriminately and irreversibly to all membranes around the neuron of interest. Even a small amount of dye that leaks out of the pipette during the formation of the gigaohm seal, can generate strong fluorescent background. Fluorescent light emanating from surrounding tissue has a devastating effect on dendritic optical signals. Elimination of the background fluorescence is critical for dendritic voltage imaging. How much dye-free solution one should put in the tip depends on time period between the submersion of the patch pipette into the recording chamber and formation of the gigaohm seal. The faster one can perform this maneuver the less dye-free solution she needs to achieve optimal staining.
Blue VSD were injected at room temperature for 25-60 minutes. The filling pipette was carefully pulled out (outside-out patch) and brain slices were left to incubate for 20-120 minutes at room temperature. Just before optical recordings the cells were re-patched with dye-free pipette at the physiological temperature (34° C.).
Voltage-sensitive dye imaging was performed on a Zeiss Axioskope 2FS microscope equipped with NeuroCCD camera (RedShirtImaging). We used Zeiss 40× objective IR-Achroplan 0.80 W. The size of the square visual field captured by NeuroCCD camera was 384×384 um. In the place of the arc lamp (normally used for epi-illumination), we inserted a 200 μm fiber optic guide with a collimator. Laser beam was focused on the other side of the fiber optic guide using a microscope objective-like lens. This arrangement produced a motionless spot of laser light (˜25 μm in diameter) at the object plane. An illuminated section of the brain slice, projected onto the NeuroCCD camera, covered approximately 25 pixels when used with 40× objective lens. At this magnification, one pixel sampled a 4.8×4.8 square in the object plane. A region of interest (ROI) was brought into the laser spot using X-Y microscope platform. The laser beam was interrupted by an electro-programmable shutter (Uniblitz®). Attention was made to limit the exposure time during the recording and positioning of the neuron.

Take `CCCCN(CCCC)c1ccc2cc(/C=C/c3cc[n+](CCC[N+](C)(C)C)c4ccccc34)ccc2c1.[Br-].[Br-]` [di-4-ANEQPQ, reference compound]: in data set [1], the “1PF Abs. Max” value is 528 nm and the “1PF Em. Max” value was 670 nm. Further, the “1PF Change (ΔF/F-100 mv)” value in data set [2] is given as 1.2E−001; 610/>665 ΔF/F-100 mv. In data set [3] (time resolution 5 ms), the “SHG Kinetics (exponential time constant)” value was determined as 76 ± 13 ms.
For the compound `CN(C)c1ccc(/C=C/c2ccc(/C=C/c3cc[n+](CCC[N+](C)(C)C)c4ccccc34)o2)cc1` [JPW-3080], in data set [4], the “polarity of optical signal at 532 nm excitation” value is given as “negative optical signals”, the “polarity of optical signal at 658 nm excitation” value was “positive”, the “dF/F at 658 nm” value was 5.13 ± 1.20% and the “S/N ratio at 658 nm” value came out at 6.20 ± 2.29. In addition, the “average amplitude of AP-associated optical signal, 658 nm excitation” value in data set [4] (n=4 cells, N=24 measurements) came to 4.13±0.96 % ΔF/F. In addition, the “average size of AP-associated optical signal, 532 nm excitation” value in data set [4] (same 4 cells) is on record as 0.97±0.26 % ΔF/F. For the same compound, the “average amplitude ratio of AP-associated signal at two wavelengths (658/532 nm)” value in data set [4] (same cell and region of interest) was found to be 4.39±1.07. Besides, in data set [1], the Absorbance ethanol came to 630 nm, the Emission ethanol stood at 896 nm and the Absorbance water was 554 nm. Also, in data set [1] (multilamellar lipid vesicles), the “Absorbance MLV” value is reported as 569 nm and the “Emission MLV” value came out at 730 nm.
Turning to `CCCCN(CCCC)c1ccc2cc(/C=C/C=C/c3cc[n+](CCC[N+](C)(C)C)c4ccccc34)ccc2c1.[Br-].[Br-]` [di-4-ANBDQPQ, Di-4-ANBDQPQ, reference compound], in data set [4], the “dF/F at 658 nm” value is recorded as 1.23 ± 0.66% and the “S/N ratio at 658 nm” value is recorded as 4.97. In addition, in data set [1], the Absorbance ethanol is given as 603 nm, the Emission ethanol worked out at 818 nm, the “1PF Abs. Max” value is 539 nm and the “1PF Em. Max” value is given as 708 nm. Moreover, the Absorbance water in data set [1] worked out at 552 nm. In addition, in data set [1] (multilamellar lipid vesicles), the “Absorbance MLV” value turned out to be 539 nm. Also, in data set [2], the “1PF Change (ΔF/F-100 mv)” value is given as 2.0E−001; 618/>715 ΔF/F-100 mv. Besides, the “SHG Kinetics (exponential time constant)” value in data set [3] (time resolution 5 ms) is given as below 5 ms.
Consider `CCCCN(CCCC)c1ccc2cc(/C=C/C=C/C=C/c3cc[n+](CCC[N+](C)(C)C)c4ccccc34)ccc2c1.[Br-].[Br-]` [di-4-ANHTQPQ, reference compound], for which, in data set [1], the “1PF Abs. Max” value is given as 504 nm and the “1PF Em. Max” value was 655 nm. In data set [2], the “1PF Change (ΔF/F-100 mv)” value was 5.4E−002; 630/>715 ΔF/F-100 mv. Also, the “SHG Kinetics (exponential time constant)” value in data set [3] (time resolution 5 ms) is reported as 34 ± 3 ms.
`CCC[N+](CCC)(CCC)CCC[n+]1ccc(/C=C/c2ccc(-c3ccc(N(CC)CC)s3)s2)cc1` [PY-1278]: in data set [1], the “1PF Abs. Max” value is given as 555 nm and the “1PF Em. Max” value was 688 nm. Further, in data set [2], the “1PF Change (ΔF/F-100 mv)” value is 7.9E−002; 640/>715 ΔF/F-100 mv. Also, the “SHG kinetics, in words” value in data set [3] is reported as “instantaneous”.
For the compound `CCN(CC)c1ccc(-c2ccc(-c3ccc(/C=C/c4cc[n+](CCC[N+](CC)(CC)CC)cc4)s3)s2)s1` [PY-1268], in data set [4], the “dF/F at 658 nm” value is 5.89 ± 3.41% and the “S/N ratio at 658 nm” value amounted to 4.44 ± 0.75. Besides, in data set [1], the Absorbance ethanol came out at 588 nm, the “1PF Abs. Max” value is recorded as 535 nm, the “1PF Em. Max” value is given as 714 nm and the Absorbance water came out at 508 nm. Also, the “Absorbance MLV” value in data set [1] (multilamellar lipid vesicles) is reported as 535 nm. In data set [2], the “1PF Change (ΔF/F-100 mv)” value is 4.2E−002; 640/>715 ΔF/F-100 mv. For the same compound, in data set [3], the “SHG kinetics, in words” value was “instantaneously”. Further, the “2PF signal sensitivity detected between 750-850 nm” value in data set [3] (kinetics data, FIG. 3c) was 4.28 %/50 mV. Moreover, in data set [3] (time resolution 5 ms), the “2PF kinetics (time of signal change)” value is recorded as at most 5 ms and the “SHG Kinetics (exponential time constant)” value is below 5 ms.
Take `CC[N+](CC)(CC)CCC[n+]1ccc(/C=C/c2ccc(-c3ccc(N4CCCC4)s3)s2)cc1` [PY-1274]: in data set [1], the “1PF Abs. Max” value was determined as 551 nm and the “1PF Em. Max” value is 691 nm. Further, in data set [2], the “1PF Change (ΔF/F-100 mv)” value is 5.0E−002; 620/>715 ΔF/F-100 mv.
